Assay results reported in patent US20260125428A1, “SYNTHETIC TRIPLEX PEPTIDE NUCLEIC ACID-BASED INHIBITORS FOR CANCER THERAPY” (University of Connecticut, priority 2022, published 2026).

How the values were obtained:
U2932 cells = experiment: Viability of U2932 cells, combination of PNAs with HDAC inhibitors and other drugs
Experimental: FIGS. 9A-D show cell viability after treatment with indicated PNAs. (9A) The viability of U2932 cells after treatment with γPNA1-NLS (8 μM), romidepsin (10 nM) and combination of γPNA1-NLS with romidepsin over 96 hours. (9B) The viability of U2932 cells after treatment with γPNA2-NLS (8 μM), romidepsin (10 nM) and combination of γPNA2-NLS with romidepsin over 96 hours. (9C) Fold change in C-Myc levels after combination of γPNA1-NLS and γPNA2-NLS with romidepsin in comparison to only romidepsin treatment. (9D) Fold change in BCL2 levels after combination of γPNA1-NLS and γPNA2-NLS with romidepsin in comparison to only romidepsin treatment.
FIGS. 10A-F show the viability of U2932 cells after indicated treatment. (10A) Viability of U2932 cells after treatment with γPNA2-NLS […], vorinostat (2.5 μM) and combination of γPNA2-NLS with vorinostat over 96 hours. (10B) The viability of U2932 cells after treatment with γPNA2-NLS (8 μM), valproic acid (2 mM) and combination of γPNA2-NLS with valproic acid over 96 hours. […] (10E) The viability of U2932 cells after treatment with CHOP (cyclophosphamide, vincristine, doxorubicin, prednisone) and combination of γPNA2-NLS with CHOP at different doses.
Cell viability: U2932 and Raji cells were seeded in 96 well plates at 20,000 cells/well. PNAs were added to the media at different concentrations (1, 2, 4, and 8 μM). […] The cell viability was then measured via trypan blue staining on day 1, 2, and 4.

U2932 derived xenografts = experiment: Tumor growth and survival study in U2932 derived xenograft mice; type: in vivo; conditions: 5 mg/kg systemic on day 1, 4, 7, and 10
Experimental: FIGS. 7A-C show survival data of mice after systemic administration of indicated PNAs. (7A) Graph representing the tumor volume of U2932 xenografts after systemic treatment with indicated PNAs (n≥4 mice per group). PNAs were administered systemically on day 1, 4, 7, and 10 (n≥4 mice per group). (7B) The survival of U2932 derived xenograft mice after treatment with γPNA2-NLS, γPNA3, and ScrγPNA4-NLS at 5 mg/kg dose in comparison to the control (saline) mice. (7C) Complete blood count analysis of mice from different groups at the end of the study. RBC: red blood cells; WBC: white blood cells; HGB: hemoglobin; PLT: platelets; HCT: hematocrit; MCH: […]. (D) Blood chemistry analysis of mice from different groups at the end of the study. ALT: alanine transaminase; AST: aspartate transaminase; BUN: blood urea nitrogen; LDH: Lactate dehydrogenase. Results are presented as mean±SEM (n≥4).
In vivo studies in xenograft mice model: U2932 derived xenografts were generated by implanting 10 million cells subcutaneously on the lower right flank of the female NSG mice (NOD.Cg-Prkdc^scidIl2rg^tm1Wj1/SzJ, #005557, Jackson Laboratories, USA) of 5-6 weeks. The mice were maintained in the animal care facility at the University of Connecticut following the required Institutional Animal Care and Use Committee guidelines (IACUC). Mice developed palpable tumors after 3-4 weeks of implantation. Tumor dimensions including length (l), breadth (b), and height (h) were measured using a caliper and volume was calculated using the formula for ellipsoid (0.5236×lbh).
Survival study: Mice bearing tumors about 100-150 mm^3 were divided into 4 groups. Mice were treated with either γPNA2-NLS, γPNA3, Scr-γPNA4-NLS, or saline. PNAs were administered at 5 mg/kg dose on day 1, 4, 7, and 10. The change in tumor volume was measured every day. Mice were euthanized when the tumor volume reached 2000 mm^3. Blood was collected via cardiac punter in 1.5 ml tubes containing 0.5 M EDTA. Organs including tumor, liver, kidney, spleen, heart and lung were collected. Tumor fraction and all organs were kept in 10% formalin and submitted for histology. The complete blood count analysis was performed on the collected blood samples using Sysmex CBC analyzer. Plasma was separated from the blood samples and submitted to Antech diagnostic for blood chemistry analysis to quantify the levels of alanine transaminase, lactate dehydrogenase, aspartate transaminase and blood urea nitrogen.

C-Myc oncogene [1] = experiment: Gene expression (RT-PCR) of C-Myc and downstream targets in U2932 cells; type: cell-based, human; conditions: RT-PCR, 24 h, 8 μM
Experimental: (§1) FIGS. 4A-F show effect of cellular uptake of indicated PNAs. (4A) Expression levels of C-Myc oncogene in U2932 (DLBCL), Raji and Daudi cells (Burkitt's lymphoma) in comparison to the peripheral blood mononuclear cells (PBMC). (4B) Cell viability of U2932 cells after 24 h treatment with indicated PNAs at different doses. (4C) Cell viability of Raji cells after 24 h treatment with indicated PNAs at different doses. (4D) Gene expression levels of C-Myc oncogene and its downstream targets including MCL1 and EZH2 in U2932 cells after 24 h of treatment with γPNA1-NLS, γPNA2-NLS, and ScrγPNA4-NLS at 8 μM. (4E) Gene expression levels of C-Myc oncogene and its downstream targets including BCL2 and EZH2 in Raji cells after 24 h of treatment with γPNA1-NLS, γPNA2-NLS, and ScrγPNA4-NLS at 8 μM. (4F) Gene expression levels of C-Myc in U2932 cells after 24 h treatment with γPNA2-NLS and ScrγPNA4-NLS at indicated doses.
(§2) Gene expression: The levels of mRNA were measured in different cell lines using real time-polymerase chain reaction (RT-PCR). Both untreated (PBMC, U2932, Raji, Daudi) and PNA treated lymphoma cells were collected at the end of treatment. Total RNA was extracted using Qiagen RNeasy® kit (USA) and concentration was measured by Nanodrop™. cDNA was synthesized using high capacity cDNA reverse transcription kit (Applied Biosystem, USA) following the recommended cycling conditions. Taqman® gene expression assay for C-Myc, EZH2, BCL2, MCL1 and GAPDH were used to amplify the respective mRNAs using the specified cycling conditions in the CFX Real-Time PCR detection system. GAPDH was used as the reference gene and fold change in mRNA expression was obtained by normalizing against the untreated cells or cells treated with HDAC inhibitors.

C-Myc oncogene [2] = experiment: Gene expression (RT-PCR) of C-Myc and downstream targets in Raji cells; type: cell-based, human; conditions: 24 h, 8 μM
Experimental: as §1, §2

C-Myc oncogene [3] = experiment: Gene expression (RT-PCR) in U2932 cells after combination treatment; type: cell-based, human
Experimental: as §2

Molecule: C/C=C1\NC(=O)[C@H]2CSSCC/C=C/[C@H](CC(=O)N[C@H](C(C)C)C(=O)N2)OC(=O)[C@H](C(C)C)NC1=O [Romidepsin, reference compound]
- cytotoxicity at 0.01 µM (U2932 cells; Homo sapiens, U2932, 96 h, read-out: decrease in viability, alone): 60%

Molecule: X3TCCCTCCCTCCGTTCTTTTTCCCX4 (JJJTJJJT linker N-term; C-terminal lysine; gammaPNA; misc_feature 1 JJJTJJJT-linker- is covalently linked to the backbone, wherein J is pseudoisocytosine and the linker is 11-Amino-3,6,9-Trioxaundecanoic Acid (DCHA), represented as -OOO-; misc_feature 23 K is covalently linked to the backbone; modified_base 1..23 OTHER; peptide nucleic acid) [γPNA3, site 2 gamma tail clamp PNA without NLS]
- tumor growth in comparison to the control groups (U2932 derived xenografts): significantly reduced tumor growth
- survival of the mice (U2932 derived xenografts; saline 21 days): 23 days

Molecule: JJJJTTJJ-OOO-CCTTCCCCACCCTCCCCACCCTC-K-OOO-VKRKKKP (gamma PNA tail clamp; linkers; NLS peptide; misc_feature 1 JJJJTTJJ-linker- is covalently linked to the backbone, wherein J is pseudoisocytosine and the linker is 11-Amino-3,6,9-Trioxaundecanoic Acid (DCHA), represented as -OOO-; misc_feature 23 -K-linker-SEQ ID NO: 5 is covalently linked to the backbone, wherein the linker is 11-Amino-3,6,9-Trioxaundecanoic Acid (DCHA), represented as -OOO-; modified_base 1..23 OTHER; peptide nucleic acid) [γPNA1-NLS]
- change in levels of C-Myc (in words) (C-Myc oncogene [1]): did not observe any change in levels of C-Myc
- levels of downstream targets MCL1 and EZH2 (C-Myc oncogene [1]): no change in their levels
- combination effect with romidepsin on viability (in words) (U2932 cells; U2932 cells, romidepsin 10 nM, PNA 8 uM): synergistic activity
- decrease in U2932 cell viability, combination with romidepsin (U2932 cells; romidepsin 10 nM pretreatment 24 h, PNA 8 uM, day 4): approximately 80%
- change in levels of C-Myc (in words) (C-Myc oncogene [2]): did not observe any change in levels of C-Myc
- levels of downstream targets BCL2 and EZH2 (C-Myc oncogene [2]): no change in their levels
- BCL-2 levels, combination with romidepsin in comparison to only romidepsin (C-Myc oncogene [3]; day 4): reduced levels
- decrease in C-Myc levels, combination with romidepsin compared with only romidepsin (C-Myc oncogene [3]; day 4, PNA 8 uM, romidepsin 10 nM): approximately 50%
